Results published in patent US20250295799A1, “ANTIBODY-DRUG CONJUGATES TARGETING GLYPICAN-3 AND METHODS OF USE” (Zymeworks BC Inc., priority 2022, published 2025).

What was measured:
[1] = tested on: cynomolgus monkey GPC3 on transfected CHO-S cells; experiment: Binding to transfected CHO-S cells by flow cytometry; settings: 24 h at 4 °C
Description: Briefly, CHO—S cells were transiently transfected for −24 hours with a pTT5-based expression plasmid encoding human GPC3 or cynomolgus monkey GPC3, 0.5 μg DNA per 1 million cells, using the Neon™ Transfection System (Thermo Fisher Scientific Corp., Waltham, MA), to transiently express human or cynomolgus monkey GPC3. Following transfection, cells were seeded at 50,000 cells/well in V-bottom 96-well plates and treated with antibody for 24 hours at 4° C. to prevent internalization. […] Following incubation and washing, fluorescence was detected by flow cytometry on a BD LSRFortessa™ Cell Analyzer (BD Biosciences, Franklin Lake, NJ) with 1,000 minimum events collected per well. AF647/APC-A GeoMean (fluorescence signal geometric mean, proportional to anti-Human AF647 binding) in live cell population was plotted against antibody concentration using GraphPad Prism Version 9 (GraphPad Software, San Diego, CA). The Bmax and Kd values were derived from the “Specific binding with Hill slope” nonlinear regression curve fit in GraphPad Prism Version 9.
Briefly, CHO—S cells were transiently transfected for −24 hours with a pTT5-based expression plasmid encoding human GPC3 or cynomolgus monkey GPC3, 0.5 μg DNA per 1 million cells, using the Neon™ Transfection System (Thermo Fisher Scientific Corp., Waltham, MA), to transiently express human or cynomolgus monkey GPC3. […]

JHH-5 cells (GPC3-mid) = experiment: On-cell binding by flow cytometry
Description: (§1) Briefly, cells were seeded at 50,000 cells/well in V-bottom 96-well plates and treated with antibody for 24 hours at 4° C. to prevent internalization. […] Following incubation and washing, fluorescence was detected by flow cytometry on a BD LSRFortessa™ Cell Analyzer (BD Biosciences, Franklin Lake, NJ) with 1,000 minimum events collected per well. AF647/APC-A GeoMean (fluorescence signal geometric mean, proportional to anti-Human AF647 binding) in live cell population was plotted against antibody concentration using GraphPad Prism Version 9 (GraphPad Software, San Diego, CA). The Bmax, Curve Hill Slope (h) and Kd values were derived from the “Specific binding with Hill slope” nonlinear regression curve fit in GraphPad Prism Version 9.
(§2) The on-cell binding capabilities of light chain (LC)-modified M3-H18L6 antibody constructs were assessed on JHH-7 (hepatocellular carcinoma; GPC3-high) and JHH-5 (hepatocellular carcinoma; GPC3-mid) by flow cytometry as described below. […] The assay was carried out as described in Example 13.
(§3) Briefly, plasma stress was carried out by incubating M3-H18L6 LC-modified antibodies in mouse plasma (BioIVT, Westbury, NY; Cat. No. MSE00PL38NC-0103070) for 14 days in a 37° C./5% CO2 incubator. […] Following incubation and washing, fluorescence was detected by flow cytometry on a BD LSRFortessa™ Cell Analyzer (BD Biosciences, Franklin Lake, NJ) with 1,000 minimum events collected per well. AF647/APC-A GeoMean (fluorescence signal geometric mean, proportional to anti-Human AF647 binding) in live cell population was plotted against antibody concentration using GraphPad Prism Version 9 (GraphPad Software, San Diego, CA). […] Following incubation, cells were dissociated, washed, and surface AF488 fluorescence was quenched using an anti-AF488 antibody (Life Technologies, Carlsbad, CA; Cat. No. A-11094) at 100 nM for 30 minutes at 4° C. Quenched AF488 fluorescence (internalized fluorescence) was detected by flow cytometry on a BD LSRFortessa™ Cell Analyzer (BD Biosciences, Franklin Lake, NJ) with 1,000 minimum events collected per well.

JHH-7 cells (GPC3-high) = experiment: On-cell binding by flow cytometry; settings: flow cytometry
Description: as §1, §2, §3

[2] = tested on: JHH-5 cells (mid GPC3-expressing); experiment: Internalization by flow cytometry (quenched AF488); type: cell-based; settings: 5 nM, 24 h
Description: Cells were seeded at 50,000 cells/well in 48-well plates and incubated overnight under standard culturing conditions (37° C./5% CO2) Gibco™ William's E Medium, GlutaMAX™ Supplement (Thermo Fisher Scientific, Waltham, MA; Cat. No. 32551020) with 10% FBS (Thermo Fisher Scientific, Waltham, MA; Cat. No. 12483020). Coupled antibodies were added to cells the following day at 5 nM and incubated under standard culturing conditions for 24 hours to allow for internalization. Following incubation, cells were dissociated, washed, and surface AF488 fluorescence was quenched using an anti-AF488 antibody (Life Technologies, Carlsbad, CA; Cat. No. A-11094) at 100 nM for 30 minutes at 4° C. Quenched AF488 fluorescence (internalized fluorescence) was detected by flow cytometry on a BD LSRFortessa™ Cell Analyzer (BD Biosciences, Franklin Lake, NJ) with 1,000 minimum events collected per well.
Briefly, plasma stress was carried out by incubating M3-H18L6 LC-modified antibodies in mouse plasma (BioIVT, Westbury, NY; Cat. No. MSE00PL38NC-0103070) for 14 days in a 37° C./5% CO2 incubator. […] Following incubation and washing, fluorescence was detected by flow cytometry on a BD LSRFortessa™ Cell Analyzer (BD Biosciences, Franklin Lake, NJ) with 1,000 minimum events collected per well. […]

Sequence of cynomolgus monkey GPC3 on transfected CHO-S cells (as listed by the source): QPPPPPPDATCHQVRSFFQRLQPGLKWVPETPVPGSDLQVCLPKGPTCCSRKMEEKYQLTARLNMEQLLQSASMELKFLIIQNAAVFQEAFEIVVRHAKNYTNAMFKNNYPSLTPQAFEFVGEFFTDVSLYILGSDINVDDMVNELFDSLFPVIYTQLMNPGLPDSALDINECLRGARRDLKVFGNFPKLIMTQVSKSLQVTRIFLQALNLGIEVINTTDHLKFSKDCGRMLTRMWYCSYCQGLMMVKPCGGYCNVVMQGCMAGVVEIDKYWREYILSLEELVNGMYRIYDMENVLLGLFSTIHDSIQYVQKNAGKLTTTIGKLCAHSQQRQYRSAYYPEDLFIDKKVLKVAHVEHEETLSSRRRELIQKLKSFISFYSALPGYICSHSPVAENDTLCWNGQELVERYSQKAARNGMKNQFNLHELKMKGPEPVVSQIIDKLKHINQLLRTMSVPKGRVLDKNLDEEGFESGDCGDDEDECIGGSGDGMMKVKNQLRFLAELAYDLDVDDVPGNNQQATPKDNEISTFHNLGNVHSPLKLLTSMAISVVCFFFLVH

## palivizumab
[1]
  binding to CHO-S cells expressing cynomolgus monkey GPC3, in words: did not exhibit any binding
JHH-5 cells (GPC3-mid)
  binding to JHH-5 cells, in words: did not exhibit any binding
JHH-7 cells (GPC3-high)
  binding to JHH-7 cells, in words: did not exhibit any binding
[2]
  internalization, in words: minimal internalization
